Laboratory results taken from a melting point compilation (Tetko et al.).
Blank lines part the entries; values can stand above or below the compound they belong to.

Compound: COc1cc([N+](=O)[O-])ccc1O
melting point: 99 to 104 °C

Compound: O=C(O)c1cc2cc(F)ccc2[nH]1
melting point: 254 to 258 °C

Compound: Nc1nc(O)nc(C23CC4CC(CC(C4)C2)C3)n1
melting point: 340 °C

Compound: COc1ccc([N+](=O)[O-])c(I)c1
melting point: 68 to 73 °C

Compound: CCCC(C)CC(C)O (configuration not stated)
melting point: -102 °C

Compound: CCCCCCCCCCCCCC(O)CC (configuration not stated)
melting point: 50 °C

Compound: O=C(O)c1cc(F)c(F)c(Br)c1F
melting point: 123 °C

Compound: COC(=O)C=C(C)OP(=O)(OC)OC
melting point: 21 °C

Compound: CC[N+](CC)(CC)S(=O)(=O)[N-]C(=O)OC
melting point: 77 °C

Compound: Cc1nn(C)c2sc(CO)cc12
melting point: 133 to 135 °C

Compound: O=C(O)c1cc(F)c(F)cc1[N+](=O)[O-]
melting point: 165 °C

Compound: C1CCC2C(C1)CCC1C3CCCCC3CCC21 (configuration not stated)
melting point: 115 °C

Compound: Cc1cc(C)n2nc(N)c(/N=N/c3cccnc3)c2n1
melting point: 245 °C

Compound: Cc1ccc(C(=O)O)c(Cl)n1
melting point: 160 °C

Compound: C1CCCC2OC2CC1 (configuration not stated)
melting point: 53 to 56 °C

Compound: NC(Cc1c[nH]c2ccc(Br)cc12)C(=O)O (racemic)
melting point: 261 to 267 °C

Compound: Nc1cc[nH]n1
melting point: 37 °C

Compound: COc1ccc2c(C(=O)c3ccc(Cl)cc3)c(C)n(CC(=O)O)c2c1
melting point: 242 °C

Compound: COc1ccc(CCC(C)=O)cc1
melting point: 8 °C

Compound: CC(C)(C)Oc1ncc(Br)cn1
melting point: 62 °C

Compound: Cn1cc(Br)c(N)n1
melting point: 98 °C

Compound: BrCc1nc2ccccc2s1
melting point: 47 °C

Compound: CC(C)(C)C(=O)CCl
melting point: -1 °C

Compound: COc1ccc(/C=N/n2c(S)nnc2C(F)(F)F)cc1
melting point: 188 °C

Compound: Cc1nn(C(=O)OC(C)(C)C)c(C)c1C=O
melting point: 59 to 62 °C

Compound: O=C(O)c1cc(O)ccc1[N+](=O)[O-]
melting point: 170 °C

Compound: c1cn[nH]c1
melting point: 68 °C

Compound: CC1NC(=O)C(C)NC1=O (configuration not stated)
melting point: 274 to 278 °C

Compound: O=C1C(Cl)=C(Cl)C(=O)c2ccccc21
melting point: 195 °C

Compound: NS(=O)(=O)c1c(Cl)nc2sccn12
melting point: 176 to 177 °C

Compound: CC(=O)OCC1OC(n2cnc3c(N)ncnc32)C(OC(C)=O)C1OC(C)=O (configuration not stated)
melting point: 174 to 175 °C

Compound: C=C[Si](OC(C)=O)(OC(C)=O)OC(C)=O
melting point: 7 °C

Compound: CCCN(CCC)c1c([N+](=O)[O-])cc(C(F)(F)F)cc1[N+](=O)[O-]
melting point: 49 °C

Compound: ClCC1CCN(c2ncnc3ccsc23)CC1
melting point: 99 to 100 °C

Compound: O=c1[nH]c(=O)n(C2CCCO2)cc1F (configuration not stated)
melting point: 172 °C

Compound: CCCCCCCCCCCCCCCCCC(=O)OC(C)C
melting point: 28 °C

Compound: CCCCN(CC)c1c([N+](=O)[O-])cc(C(F)(F)F)cc1[N+](=O)[O-]
melting point: 66 °C

Compound: COC(=O)c1cc(O)cc(Br)c1
melting point: 133 °C

Compound: O=c1[nH]cc(Br)c(=O)[nH]1
melting point: 310 °C

Compound: CC(C)(C)OC(=O)NCC(N)=S
melting point: 129 to 131 °C

Compound: Nc1ncc(F)cc1F
melting point: 57 °C

Compound: C[Si](Cn1cncn1)(c1ccc(F)cc1)c1ccc(F)cc1
melting point: 54 °C

Compound: CC(=O)Nc1ccc([N+](=O)[O-])c(Br)c1
melting point: 145 °C

Compound: Cc1ccc(N)c([N+](=O)[O-])c1
melting point: 116 °C

Compound: CC(=O)OC1CCC2C3CC=C4CC5(CCC4(C)C3CCC12C)OCCO5 (configuration not stated)
melting point: 196 °C

Compound: CCCCCCCCCCCCCC#N
melting point: 19 °C

Compound: NC(=O)C(Br)CBr (configuration not stated)
melting point: 133 °C

Compound: CSc1nsc(S)n1
melting point: 143 to 147 °C

Compound: NC(=O)OCCCl
melting point: 75.5 °C

Compound: N#Cc1c(OCC(F)(F)F)cccc1OCC(F)(F)F
melting point: 116 °C

Compound: CC(C)=CCCC(C)=CC=CC(C)=CC=CC(C)=CC=CC=C(C)C=CC=C(C)C=CC1=C(C)CCCC1(C)C
melting point: 178 °C

Compound: CC(=O)O[Si](OC(C)=O)(OC(C)(C)C)OC(C)(C)C
melting point: -4 °C

Compound: CCCOc1c(Cl)cc(C(=O)O)cc1Cl
melting point: 129 to 132 °C

Compound: O=C(O)C=Cc1ccc(O)cc1
melting point: 214 °C

Compound: Cc1cc(C)c(Br)c(C)c1N
melting point: 36 °C

Compound: O=c1cc(Cl)nc[nH]1
melting point: 194 to 195 °C

Compound: NC(=S)Nc1cccc(F)c1
melting point: 113 to 117 °C

Compound: ClCCC(Cl)Cl
melting point: -59 °C

Compound: NC(=O)CCC(N)=O
melting point: 260 to 265 °C

Compound: O=C(O)c1cc2cccnc2nc1C(F)(F)F
melting point: 309 to 310 °C

Compound: NN1CCN(CCO)CC1
melting point: 102 to 107 °C

Compound: COC(CN1CCN(CC(O)C(OC)c2ccccc2)CC1)c1ccccc1 (configuration not stated)
melting point: 83 °C

Compound: CC(=O)OCCOCCOC(C)=O
melting point: 18 °C

Compound: CC12CCC(=O)C=C1CCC1C2C(O)CC2(C)C(C(=O)CO)CCC12 (configuration not stated)
melting point: 181 °C

Compound: O=S(=O)(Cl)c1cc(Cl)c(O)c(Cl)c1
melting point: 119 °C

Compound: CC(=O)OCC(=O)C12OC(C)(C)OC1CC1C3CC(C=O)=C4C=C(OCCCl)CCC4(C)C3(F)C(O)CC12C (configuration not stated)
melting point: 181 °C

Compound: O=Cc1cccc2c1OCCO2
melting point: 62 to 63 °C

Compound: CC(C)(O)C#Cc1ccc(C=NO)cc1
melting point: 109 to 112 °C

Compound: O=[N+]([O-])c1ccc(O)cc1O
melting point: 122 °C

Compound: CCCCCCCCCCCC(=O)CCCC
melting point: 37 °C

Compound: CC1=C(C=NO)C(=O)C(C(C)C)C=C1 (configuration not stated)
melting point: 146 °C

Compound: COc1cc2c(c(Oc3c(OC)cc4c(c3O)C(CC(C)C)N(C)CC4)c1O)C(CC(C)C)N(C)CC2 (configuration not stated)
melting point: 164 °C

Compound: C#CC1(O)C=CC2C3CCC4=CC(=O)CCC4C3CCC21CC (configuration not stated)
melting point: 198 °C

Compound: CC(C)CC(C)(C)CO
melting point: -70 °C

Continued, values first:

melting point: 206 °C
Compound: CC1(C)CC(=O)C(=NNc2ccc(O)cc2)C(=O)C1

melting point: 68 to 73 °C
Compound: CC(CP(c1ccccc1)c1ccccc1)P(c1ccccc1)c1ccccc1 (configuration not stated)

melting point: 168 to 170 °C
Compound: CC1(C)c2ccccc2NC1C(N)=O (configuration not stated)

melting point: 18 °C
Compound: CCc1ccccc1O

melting point: 93 to 95 °C
Compound: Cc1ccc(Oc2cccc(F)c2C#N)cc1

melting point: 228 °C
Compound: Cc1c(/N=C/c2cc(Br)cc(Br)c2O)c(=O)n(-c2ccccc2)n1C

melting point: 102 to 104 °C
Compound: Cc1cccc(Cn2nc(C(C)(C)C)cc2C(=O)NN)c1

melting point: 75 to 77 °C
Compound: Cn1nc2ccccc2c1C=O

melting point: 289 °C
Compound: COc1cc(O)c2c(=O)cc(-c3ccc(O)cc3)oc2c1

melting point: 24.5 °C
Compound: CCCCN(C(C)=O)c1ccccc1

melting point: 83.5 °C
Compound: OC(CNc1ccccn1)c1ccccc1 (configuration not stated)

melting point: 190 to 195 °C
Compound: Oc1ccc2ncccc2c1

melting point: 193 °C
Compound: O=[N+]([O-])c1ccc(/C=C\c2ccccc2C=NNc2ccccc2)c([N+](=O)[O-])c1

melting point: 110 to 114 °C
Compound: C=C1C2CC(CC2NS(=O)(=O)c2ccc(C)cc2)C1(C)C (configuration not stated)

melting point: 104 to 105 °C
Compound: C/C(CCc1oc2ccccc2c1-c1ccc(C)o1)=N/O

melting point: 120 to 122 °C
Compound: CC(C)(C)OC(=O)N1CCN(c2ccccc2N)CC1

melting point: 102 to 106 °C
Compound: c1ccc(-c2ccccc2P(C2CCCCC2)C2CCCCC2)cc1

melting point: 231 to 232 °C
Compound: Cc1oc(-c2ccc(Cl)cc2)cc1C(=O)O

melting point: 182 °C
Compound: c1ccc(-c2sc(-c3ccccc3)c(-c3ccccc3)c2-c2ccccc2)cc1

melting point: 90 to 95 °C
Compound: Cc1nc2ccc(-c3ccccc3)cc2s1

melting point: 52 to 57 °C
Compound: ClCc1ccccc1Cn1cncn1

melting point: > 330 °C
Compound: N=C1C=C(NC(=O)c2ccccc2)/C(=N/C(=O)c2ccccc2)C=C1NC(=O)c1ccccc1

melting point: 184 to 185 °C
Compound: Nc1nccc(-c2cc(-c3cccc(C(F)(F)F)c3)no2)n1

melting point: 187 °C
Compound: CC1=NN(CN2CCOCC2)C(=O)/C1=N\Nc1ccc(C(=O)O)cc1

melting point: 161 °C
Compound: COc1ccc(-c2nnc3n2NC(c2ccco2)S3)cc1 (configuration not stated)

melting point: 107 to 111 °C
Compound: COc1ccc2c(c1)C(=O)CC2

melting point: 106 to 107 °C
Compound: OCc1ccc(-c2cccnc2)cc1

melting point: 85 °C
Compound: O=Cc1ccc(N2CCCC2)cc1

melting point: 36 °C
Compound: CSc1ccccc1C#N

melting point: 194 °C
Compound: Cc1cc(-n2c(=O)[nH]c(=O)n(C)c2=O)ccc1Oc1ccc(SC(F)(F)F)cc1

melting point: 244 to 246 °C
Compound: Cc1nc2sc3c(c2c(=O)n1NC(=O)c1ccccc1Cl)CCCC3

melting point: 115 to 117 °C
Compound: CCOC(=O)c1cnc2c(c(C)nn2C)c1Oc1cc(Cl)cc(Cl)c1

melting point: 169 °C
Compound: N[C@@H](CCC(=O)OCc1ccccc1)C(=O)O

melting point: 112 to 113 °C
Compound: CSC(S)=Nc1ccc(Cl)cc1

melting point: 161 °C
Compound: [O-][P+](c1ccccc1)(c1ccccc1)C1c2ccccc2Oc2ccccc21

melting point: 143 to 145 °C
Compound: CCOC(=O)c1c(SC)nn(S(=O)(=O)c2ccc(OC)cc2)c1N

melting point: 121 to 122 °C
Compound: CN1C(=O)N2CCc3ccccc3C2(c2ccc(Cl)cc2)C1=O (configuration not stated)

melting point: 32 °C
Compound: COC(=O)C1=Cc2ccccc2C1C (configuration not stated)

melting point: 125 to 128 °C
Compound: CC1=NN(c2cccc(Cl)c2)C(=O)C1

melting point: 212 to 215 °C
Compound: CCOC(=O)c1cn(-c2ccc(F)cc2F)c2nc(Cl)c(F)cc2c1=O

melting point: 317 °C
Compound: c1ccc2c(c1)cc1ccc3c4ccccc4cc4ccc2c1c43

melting point: 56 °C
Compound: CCc1ccc(C(c2ccc(CC)cc2)C(Cl)Cl)cc1

melting point: 228 to 230 °C
Compound: COc1ccccc1-c1nnc2n1NC(c1ccc(N(C)C)cc1)S2 (configuration not stated)

melting point: 333 to 335 °C
Compound: Clc1ccc2c(c1)N=C(N1CCN(C3=Nc4cc(Cl)ccc4Nc4ccccc43)CC1)c1ccccc1N2

melting point: 106 °C
Compound: CC(C)(C)OC(=O)n1cc(CBr)c2ccccc21

melting point: 84 to 87 °C
Compound: CC(C)(C)P(c1ccccc1-c1ccccc1)C(C)(C)C

melting point: 76 to 77 °C
Compound: Cc1c(C=O)cnn1-c1ccccc1

melting point: 108 °C
Compound: CC(=O)/C=C1\NC(=O)c2ccccc21

melting point: 169 °C
Compound: N#C/C(=N/Nc1ccc(Br)cc1)c1nc(-c2ccccc2)cs1

melting point: 147 to 148 °C
Compound: CCC(=O)Nc1c(C(=O)Cc2c(C)cc(C)cc2C)oc2ccccc12

melting point: 172 °C
Compound: COc1cc2cc(c1Cl)N(C)C(=O)CC(OC(=O)C(C)N(C)C(C)=O)C1(C)OC1C(C)C1CC(O)(NC(=O)O1)C(OC)C=CC=C(C)C2 (configuration not stated)

melting point: 237 to 238 °C
Compound: Cc1nc(-c2ccc(C(F)(F)F)cc2)sc1C(=O)O

melting point: 151 °C
Compound: CN(C)c1ccc(/C=C(\C#N)c2nc3ccccc3n2C)cc1
